Measured values: patent US11046658B2, “Aminopyrazine derivatives as PI3K-γ inhibitors” (Incyte Corporation, priority 2018, dated 2021)
pIC50: −log10 of the molar value. Where a name gives a salt, the structure may show the parent alone.

These molecules were tested on Phosphorylated Ribosomal Protein S6 (RPS6) in THP-1 cells (assay: THP-1 RPS6 ELISA Assay). Settings: Homo sapiens; Table A1; THP-1 cells, 10 nM MCP-1; read-out: PI3Kγ_THP1_RPS6_ELISA IC50.
Format: cell-based, Human
Description: To measure the Phosphorylated Ribosomal Protein S6 (RPS6) in cell lysates, THP-1 cells (Human Acute Monocytic Leukemia) are purchased from ATCC (Manassas, Va.) and maintained in RPMI with 10% FBS (Gibco/Life Technologies, Carlsbad, Calif.). For the assay, THP-1 cells are serum starved overnight in RPMI, then plated in RPMI (2×10^5 cells/well in 90 μL) into 96-well flat-bottom tissue culture treated plates (Corning, Corning, N.Y.), in the presence or absence of a concentration range of test compounds. Covered plates are incubated for 2 hours at 37° C., 5% CO2 then treated with or without 10 nM MCP-1(MYBioSource, San Diego, Calif.) for 15 minutes at 37° C., 5% CO2. Plates are centrifuged at 1600 RPM and supernatants are removed. Cells are lysed in Lysis Buffer (Cell Signaling, Danvers, Mass.) with Protease Inhibitor (Calbiochem/EMD, Germany), PMSF (Sigma, St Louis Mo.), HALTS (Thermo Fisher, Rockford, Ill.) for 30 min on wet ice. Cell lysates are frozen at −80 OC before testing. The lysates are tested in the Human/Mouse/Rat Phospho-RPS6 ELISA (R&D Systems, Inc. Minn, Minn.). The plate is measured using a microplate reader (SpectraMax M5—Molecular Devices, LLC Sunnyvale, Calif.) set to 450 nm with a wavelength correction of 540. IC50 determination is performed by fitting the curve of inhibitor percent inhibition versus the log of the inhibitor concentration using the GraphPad Prism 5.0 software.

Row | SMILES | pIC50
1 | Cc1ccc(C(O)(C(N)=O)C(F)(F)F)cc1-c1cnc(N)c(C(=O)N2CCC2(C)C)n1 (centres unmarked) [Example 27, 2-(3-(5-amino-6-(2,2-dimethylazetidine-1-carbonyl)pyrazin-2-yl)-4-methylphenyl)-3,3,3-trifluoro-2-hydroxypropanamide] | > 7.00
2 | CCNC(=O)c1nc(-c2cc(C(O)(C(N)=O)C(F)F)ccc2C)cnc1N (centres unmarked) [Example 32, 3-amino-6-(5-(1-amino-3,3-difluoro-2-hydroxy-1-oxopropan-2-yl)-2-methylphenyl)-N-ethylpyrazine-2-carboxamide] | > 7.00
3 | Cc1ccc(C(O)(C(N)=O)C(F)F)cc1-c1cnc(N)c(C(=O)NCC2(C#N)CC2)n1 (centres unmarked) [Example 33, 3-amino-6-(5-(1-amino-3,3-difluoro-2-hydroxy-1-oxopropan-2-yl)-2-methylphenyl)-N-((1-cyanocyclopropyl)methyl)pyrazine-2-carboxamide] | > 7.00
4 | Cc1ccc(C(O)(C(N)=O)C(F)F)cc1-c1cnc(N)c(C(=O)NC2CCC(F)(F)CC2)n1 (centres unmarked) [Example 34, 3-amino-6-(5-(1-amino-3,3-difluoro-2-hydroxy-1-oxopropan-2-yl)-2-methylphenyl)-N-(4,4-difluorocyclohexyl)pyrazine-2-carboxamide] | > 7.00
5 | Cc1ccc(C(O)(C(N)=O)C(F)F)cc1-c1cnc(N)c(C(=O)NC(C)(C)CO)n1 (centres unmarked) [Example 35, 3-amino-6-(5-(1-amino-3,3-difluoro-2-hydroxy-1-oxopropan-2-yl)-2-methylphenyl)-N-(1-hydroxy-2-methylpropan-2-yl)pyrazine-2-carboxamide] | > 7.00
6 | Cc1ccc(C(O)(C(N)=O)C(F)F)cc1-c1cnc(N)c(C(=O)NC2CCOCC2)n1 (centres unmarked) [Example 36, 3-amino-6-(5-(1-amino-3,3-difluoro-2-hydroxy-1-oxopropan-2-yl)-2-methylphenyl)-N-(tetrahydro-2H-pyran-4-yl)pyrazine-2-carboxamide] | > 7.00
7 | Cc1ccc(C(O)(C(N)=O)C(F)F)cc1-c1cnc(N)c(C(=O)NCCC2CCOC2)n1 (centres unmarked) [Example 37, 3-amino-6-(5-(1-amino-3,3-difluoro-2-hydroxy-1-oxopropan-2-yl)-2-methylphenyl)-N-(2-(tetrahydrofuran-3-yl)ethyl)pyrazine-2-carboxamide] | > 7.00
8 | Cc1ccc(C(O)(C(N)=O)C(F)(F)F)cc1-c1cnc(N)c(C(=O)NCC(F)(F)F)n1 (centres unmarked) [Example 38, 3-Amino-6-(5-(3-amino-1,1,1-trifluoro-2-hydroxy-3-oxopropan-2-yl)-2-methylphenyl)-N-(2,2,2-trifluoroethyl)pyrazine-2-carboxamide trifluoroacetate] | > 7.00
9 | CC(=O)NCC(O)(c1ccc(C)c(-c2cnc(N)c(C(=O)NC(C)C)n2)c1)C(F)(F)F (centres unmarked) [Example 39, 6-(5-(3-Acetamido-1,1,1-trifluoro-2-hydroxypropan-2-yl)-2-methylphenyl)-3-amino-N-isopropylpyrazine-2-carboxamide trifluoroacetate] | > 6.30
10 | Cc1ccc(C(O)(CNC(=O)CF)C(F)(F)F)cc1-c1cnc(N)c(C(=O)NC(C)C)n1 (centres unmarked) [Example 40, 3-Amino-N-isopropyl-6-(2-methyl-5-(1,1,1,-trifluoro-3-(2-fluoroacetamido)-2-hydroxypropan-2-yl)phenyl)pyrazine-2-carboxamide trifluoroacetate] | > 6.30
11 | Cc1ccc(C(O)(CNC(=O)CC#N)C(F)(F)F)cc1-c1cnc(N)c(C(=O)NC(C)C)n1 (centres unmarked) [Example 42, 3-Amino-6-(5-(3-(2-cyanoacetamido)-1,1,1-trifluoro-2-hydroxypropan-2-yl)-2-methylphenyl)-N-isopropylpyrazine-2-carboxamide trifluoroacetate] | > 6.30

Same assay, conditions: Homo sapiens; Table A2; THP-1 cells, 10 nM MCP-1; read-out: PI3Kγ_THP1_RPS6_ELISA IC50

Row | SMILES | pIC50
12 | COCC#Cc1nc(-c2cc(C(O)(C(N)=O)C(F)(F)F)ccc2C)cnc1N (centres unmarked) [Example 47, 2-(3-(5-amino-6-(3-methoxyprop-1-ynyl)pyrazin-2-yl)-4-methylphenyl)-3,3,3-trifluoro-2-hydroxypropanamide trifluoroacetate] | > 7.00
13 | Cc1ccc(C(O)(C(N)=O)C(F)(F)F)cc1-c1cnc(N)c(C#CC2CC2)n1 (centres unmarked) [Example 48, 2-(3-(5-amino-6-(cyclopropylethynyl)pyrazin-2-yl)-4-methylphenyl)-3,3,3-trifluoro-2-hydroxypropanamide] | < 6.00
14 | Cc1ccc(C(O)(C(N)=O)C(F)(F)F)cc1-c1cnc(N)c(C#CC(C)C)n1 (centres unmarked) [Example 49, 2-(3-(5-amino-6-(3-methylbut-1-ynyl)pyrazin-2-yl)-4-methylphenyl)-3,3,3-trifluoro-2-hydroxypropanamide] | > 6.30
15 | Cc1ccc(C(O)(C(N)=O)C(F)(F)F)cc1-c1cnc(N)c(C#CC(C)(C)O)n1 (centres unmarked) [Example 50, 2-(3-(5-amino-6-(3-hydroxy-3-methylbut-1-ynyl)pyrazin-2-yl)-4-methylphenyl)-3,3,3-trifluoro-2-hydroxypropanamide] | > 7.00
16 | Cc1ccc(C(O)(C(N)=O)C(F)(F)F)cc1-c1cnc(N)c(C#CCC(C)O)n1 (centres unmarked) [Example 51, 2-(3-(5-amino-6-(4-hydroxypent-1-ynyl)pyrazin-2-yl)-4-methylphenyl)-3,3,3-trifluoro-2-hydroxypropanamide] | > 7.00
17 | Cc1ccc(C(O)(C(N)=O)C(F)(F)F)cc1-c1cnc(N)c(C#Cc2ccn[nH]2)n1 (centres unmarked) [Example 52, 2-(3-(6-((1H-pyrazol-5-yl)ethynyl)-5-aminopyrazin-2-yl)-4-methylphenyl)-3,3,3-trifluoro-2-hydroxypropanamide] | > 6.30
18 | Cc1ccc(C(O)(C(N)=O)C(F)(F)F)cc1-c1cnc(N)c(C#Cc2cncn2C)n1 (centres unmarked) [Example 53, 2-(3-(5-amino-6-((1-methyl-1H-imidazol-5-yl)ethynyl)pyrazin-2-yl)-4-methylphenyl)-3,3,3-trifluoro-2-hydroxypropanamide] | > 6.30
19 | Cc1ccc(C(O)(C(N)=O)C(F)(F)F)cc1-c1cnc(N)c(C#Cc2cnn(C)c2)n1 (centres unmarked) [Example 54, 2-(3-(5-amino-6-((1-methyl-1H-pyrazol-4-yl)ethynyl)pyrazin-2-yl)-4-methylphenyl)-3,3,3-trifluoro-2-hydroxypropanamide] | > 7.00
20 | Cc1ccc(C(O)(C(N)=O)C(F)(F)F)cc1-c1cnc(N)c(C#Cc2ccccn2)n1 (centres unmarked) [Example 55, 2-(3-(5-amino-6-(pyridin-2-ylethynyl)pyrazin-2-yl)-4-methylphenyl)-3,3,3-trifluoro-2-hydroxypropanamide] | > 7.00
21 | Cc1ccc(C(O)(C(N)=O)C(F)(F)F)cc1-c1cnc(N)c(C#Cc2cncnc2)n1 (centres unmarked) [Example 56, 2-(3-(5-amino-6-(pyrimidin-5-ylethynyl)pyrazin-2-yl)-4-methylphenyl)-3,3,3-trifluoro-2-hydroxypropanamide] | > 7.00
22 | Cc1ccc(C(O)(C(N)=O)C(F)(F)F)cc1-c1cnc(N)c(C#Cc2cnccn2)n1 (centres unmarked) [Example 57, 2-(3-(5-amino-6-(pyrazin-2-ylethynyl)pyrazin-2-yl)-4-methylphenyl)-3,3,3-trifluoro-2-hydroxypropanamide] | > 7.00
23 | Cc1ccc(C(O)(C(N)=O)C(F)(F)F)cc1-c1cnc(N)c(C#Cc2ccc(C#N)cc2)n1 (centres unmarked) [Example 58, 2-(3-(5-amino-6-((4-cyanophenyl)ethynyl)pyrazin-2-yl)-4-methylphenyl)-3,3,3-trifluoro-2-hydroxypropanamide] | > 7.00
24 | Cc1ccc(C(O)(C(N)=O)C(F)(F)F)cc1-c1cnc(N)c(C#Cc2ccc(CC#N)cc2)n1 (centres unmarked) [Example 59, 2-(3-(5-amino-6-((4-(cyanomethyl)phenyl)ethynyl)pyrazin-2-yl)-4-methylphenyl)-3,3,3-trifluoro-2-hydroxypropanamide] | > 7.00
25 | COc1cc(C#Cc2nc(-c3cc(C(O)(C(N)=O)C(F)(F)F)ccc3C)cnc2N)cc(OC)c1 (centres unmarked) [Example 60, 2-(3-(5-amino-6-((3,5-dimethoxyphenyl)ethynyl)pyrazin-2-yl)-4-methylphenyl)-3,3,3-trifluoro-2-hydroxypropanamide] | > 7.00
26 | Cc1ccc(C(O)(C(N)=O)C(F)(F)F)cc1-c1cnc(N)c(C#Cc2cccc(F)c2)n1 (centres unmarked) [Example 61, 2-(3-(5-amino-6-((3-fluorophenyl)ethynyl)pyrazin-2-yl)-4-methylphenyl)-3,3,3-trifluoro-2-hydroxypropanamide] | > 7.00
27 | Cc1ccc(C(O)(C(N)=O)C(F)(F)F)cc1-c1cnc(N)c(C#CC(C)(O)C(C)C)n1 (centres unmarked) [Example 62, 2-(3-(5-amino-6-(3-hydroxy-3,4-dimethylpent-1-ynyl)pyrazin-2-yl)-4-methylphenyl)-3,3,3-trifluoro-2-hydroxypropanamide] | > 7.00
28 | Cc1ccc(C(O)(C(N)=O)C(F)(F)F)cc1-c1cnc(N)c(C#CC2CCOCC2)n1 (centres unmarked) [Example 63, 2-(3-(5-amino-6-((tetrahydro-2H-pyran-4-yl)ethynyl)pyrazin-2-yl)-4-methylphenyl)-3,3,3-trifluoro-2-hydroxypropanamide] | > 7.00
29 | Cc1ccc(C(O)(C(N)=O)C(F)(F)F)cc1-c1cnc(N)c(C#CC2(C)CCOCC2)n1 (centres unmarked) [Example 64, 2-(3-(5-amino-6-((4-methyltetrahydro-2H-pyran-4-yl)ethynyl)pyrazin-2-yl)-4-methylphenyl)-3,3,3-trifluoro-2-hydroxypropanamide] | > 7.00
